According to ChEMBL document CHEMBL5726679, “Cycloalkane derivatives” (2017):

Assay: Electrophysiological Assay: Current record was obtained by an automated patch clamp system “IonWorks Quattro (Molecular Devices Corporation)” in Population Patch Clamp mode. The operation was conducted in accordance with the operating procedure of the system. A Dulbecco's phosphate buffer containing calcium and magnesium (Sigma) was used as an extracellular fluid, and a low C1-buffer (100 mM K-gluconate, 40 mM KCl, 3.2 mM MgCl2, 5 mM EGTA, 5 mM Hepes, pH 7.3) was used as an intracellular fluid. A test compound was dissolved in dimethylsulfoxide (DMSO) to prepare a 30 mM stock solution, so as to produce 4-fold serial dilutions with the extracellular fluid for attaining a DMSO concentration of 0.3% in measurement.The hNav 1.7/β1/β2 cells cultured to a 70-80% confluent state in a T150 flask (Sumilon) were washed with PBS and subsequently with versene (Invitrogen Corp.), and collected by allowing to react with 0.05% trypsin (Invitrogen Corp.) at 37° C. for 3 minutes. After washing with a culture medium, the resultant cells were suspended in an extracellular fluid at a concentration of […] so as to be used for the measurement. The cell membrane was perforated by using an intracellular fluid including 100 μg/ml amphotericin B (Sigma).
Assay type: cell-based

IC50: 280 nM
SMILES: Cn1nccc1[C@H]1CCC[C@@H]1Oc1cc(F)c(S(=O)(=O)Nc2nncs2)cc1Cl (relative stereo)
